Results reported in patent US7468353B2, “Biologically active substance of a vasoactive intestinal peptide for treating interstitial lung diseases” (Mondobiotech Laboratories Anstalt, priority 2003, dated 2008).

What was measured:
[1] = system: MHC II surface molecules on human dentritic cells; assay: Effect of VIP on human dentritic cells: MHC II surface molecules, fluorescence-activated cell analysis; format: cell-based
From the text: [The procedure below names another target; the source lists this target under the same test.] (§1) FIGS. 1-11 show the effect of VIP on the maturation of human dentritic cells. […] is a characteristic surface protein on mature dentritic cells. Low rates of said protein indicate non-maturation of cells and thus, the inability to execute their biological function. […] Said reduction is indicated by the value M1 38.22—when measuring after application of 9.1 μmol—and compared to the value M1 81.26 (FIG. 10) of untreated cells (FIG. 1)—in the fluorescence-activated cell analysis. This procedure consists of searching the cell surfaces with the help of fluorescence-marked antibodies for the corresponding antigens (here: CD 83).

PACAP receptor type I = target: T1, PACAP receptor type I (Homo sapiens, UniProt P41586); settings: cited from earlier work
T1 sequence (P41586 21-468): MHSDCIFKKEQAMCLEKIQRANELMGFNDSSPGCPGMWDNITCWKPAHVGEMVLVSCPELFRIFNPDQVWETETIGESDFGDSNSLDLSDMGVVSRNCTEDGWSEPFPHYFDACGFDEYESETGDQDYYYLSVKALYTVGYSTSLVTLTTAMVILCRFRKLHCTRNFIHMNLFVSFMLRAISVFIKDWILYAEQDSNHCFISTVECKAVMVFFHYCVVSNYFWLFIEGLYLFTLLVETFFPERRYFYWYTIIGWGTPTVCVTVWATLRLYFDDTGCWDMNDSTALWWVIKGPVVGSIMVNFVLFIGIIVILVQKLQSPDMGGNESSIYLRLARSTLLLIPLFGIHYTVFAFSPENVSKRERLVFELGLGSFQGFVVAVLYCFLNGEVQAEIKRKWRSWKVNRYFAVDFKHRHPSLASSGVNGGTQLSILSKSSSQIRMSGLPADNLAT

[2] = system: MHC I surface molecules on human dentritic cells; assay: Effect of VIP on human dentritic cells: MHC I surface molecules, fluorescence-activated cell analysis; format: cell-based
[3] = system: CD 83 surface molecules on human dentritic cells; assay: Effect of VIP on maturation of human dentritic cells: CD 83 surface molecules, fluorescence-activated cell analysis; format: cell-based
From the text: as §1

PACAP receptor type II = settings: PACAP versus VIP; cited from earlier work
[4] = VIP 9.1 μM, marker All, FIG. 11

## His-Ser-Asp-Ala-Val-Phe-Thr-Asp-Asn-Tyr-Thr-Arg-Leu-Arg-Lys-Gln-Met-Ala-Val-Lys-Lys-Tyr-Leu-Asn-Ser-Ile-Leu-Asn [VIP]
[1]; 9.1 μmol VIP, untreated cells 83.94
  value M1 for MHC II: 77.73
[1]; VIP 1 μM, FIG. 8
  MHC II % Gated, marker All: 100.00%
  MHC II Mean, marker All: 170.33
  MHC II % Gated, marker M1: 77.41%
  MHC II Mean, marker M1: 207.21
[1]; VIP 9.1 μM, FIG. 12
  MHC II % Gated, marker All: 100.00%
  MHC II Mean, marker All: 175.73
  MHC II % Gated, marker M1: 77.73%
  MHC II Mean, marker M1: 213.25
[1]; same dose of VIP
  inhibition of MHC II surface molecules compared with CD 83: far less inhibited
PACAP receptor type I
  affinity of receptor type I: very low affinity
[2]; 9.1 μmol VIP, untreated cells 85.59
  value M1 for MHC 1: 70.57
[2]; VIP 1 μM, marker All, FIG. 7
  MHC I % Gated, marker All: 100.00%
  MHC I Mean, marker All: 200.61
[2]; VIP 1 μM, marker M1, FIG. 7
  MHC I % Gated, marker M1: 78.69%
  MHC I Mean, marker M1: 242.97
[2]; [4]
  MHC 1 % Gated, marker All: 100.00%
  MHC 1 Mean, marker All: 136.67
[2]; VIP 9.1 μM, marker M1, FIG. 11
  MHC 1 % Gated, marker M1: 70.57%
  MHC 1 Mean, marker M1: 174.61
[2]; same dose of VIP
  inhibition of MHC I surface molecules compared with CD 83: far less inhibited
[3]; VIP 1 μM, FIG. 6
  CD 83 % Gated, marker All: 100.00%
  CD 83 Mean, marker All: 108.13
  CD 83 % Gated, marker M1: 69.70%
  CD 83 Mean, marker M1: 137.30
[3]; VIP 9.1 μM, FIG. 10
  CD 83 % Gated, marker All: 100.00%
  CD 83 Mean, marker All: 76.48
  CD 83 % Gated, marker M1: 38.22%
  CD 83 Mean, marker M1: 143.06
[3]; after application of 9.1 μmol VIP, untreated cells 81.26
  value M1 for CD 83: 38.22
[3]; application of 1 μmol VIP (FIG. 5)
  effect on CD 83 surface molecules: dramatic reduction
[3]; application of 9.1 μmol VIP (FIG. 9)
  effect on CD 83 surface molecules: dramatic reduction
PACAP receptor type II
  affinity of receptor type II: similar

## His-Ser-Asp-Gly-Ile-Phe-Thr-Asp-Ser-Tyr-Ser-Arg-Tyr-Arg-Lys-Gln-Met-Ala-Val-Lys-Lys-Tyr-Leu-Ala-Ala-Val-Leu-Gly-Lys-Arg-Tyr-Lys-Gln-Arg-Val-Lys-Asn-Lys [PACAP]
PACAP receptor type I
  affinity of receptor type I: high affinity
PACAP receptor type II
  affinity of receptor type II: similar
